# Laboratory results taken from patent US6472425B1, “Methods for treating female sexual dysfunctions” (NitroMed, Inc., priority 1997, dated 2002).
# System: Human corpus cavernosum tissue
# Assay: In vitro comparative relaxation responses, isometric tension of phenylephrine-contracted tissue strips in organ chambers
# Assay type: cell-based
# Conditions: doses of 10 μM and 30 μM, compared with an equimolar dose of dipyridamole; tissue contracted with phenylephrine 7×10^−7 M; −100% = tone after papaverine 10^−4 M; FIG. 40
# Description: In Vitro Comparative Relaxation Responses
# Human corpus cavernosum tissue biopsies were obtained at the time of penile prosthesis implantation from impotent men. The tissue was maintained in a chilled Krebs-bicarbonate solution prior to assay. The tissue was cut into strips of 0.3×0.3×1 cm and suspended in organ chambers for isometric tension measurement. Tissues were incrementally stretched until optimal isometric tension for contraction was obtained. Once this was achieved, the tissues were contracted with phenylephine (7×10^−7 M) and once a stable contraction was achieved, the tissues were exposed to either dipyridamole or Example 1 (10^−6 to 3×10^−5 M) by cumulative additions to the chamber. At the end of the experiment papaverine (10^−4 M) is added to obtain maximal relaxation. […] Data are expressed as the percent loss in tone from the phenylephrine-induced contraction (0%=phenylephrine contraction; −100% tone after the administration of papaverine).
smiles,measurement,value
"CC(C)(CC(=O)OCCN(CCOC(=O)CC(C)(C)SN=O)c1nc(N2CCCCC2)c2nc(N(CCOC(=O)CC(C)(C)SN=O)CCOC(=O)CC(C)(C)SN=O)nc(N3CCCCC3)c2n1)SN=O [Example 1, 2,6-bis(diethyl(3-methyl-3(nitrosothiol)butyric acid ester)amino)-4,8-dipiperidinopyrimido-[5,4d]-pyrimidine]",relaxing the phenylephrine-induced contraction (percent loss in tone from the phenylephrine-induced contraction),more efficacious
